Results reported in ChEMBL document CHEMBL1201862, “PubChem BioAssay data set” (2004).
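Five compound concentrations were applied to cells in 96-well plates for 48 hours; endpoints were derived by simple linear interpolation of the resulting dose-response curve. The concentration for 50% growth inhibition is given as GI50.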 The source made the active and inactive calls. No stated cut-off is given here; in the data, active = GI50 up to about 1.1 µM and inactive = higher.

What was measured:
Assay in all cases: inhibition of tumour cell growth, NCI panel, 48 h
OVCAR-3 = test system: OVCAR-3
ACHN = test system: ACHN
IGROV-1 = test system: IGROV-1
Malme-3M = test system: Malme-3M
NCI-H460 = test system: NCI-H460
COLO 205 = test system: COLO 205
OVCAR-4 = test system: OVCAR-4
A498 = test system: A498
KM12 = test system: KM12
SK-MEL-5 = test system: SK-MEL-5
NCI-H23 = test system: NCI-H23
OVCAR-8 = test system: OVCAR-8
786-0 = test system: 786-0
SF-268 = test system: SF-268
UACC-62 = test system: UACC-62
MCF7 = test system: MCF7
CAKI-1 = test system: CAKI-1
U-251 = test system: U-251
SK-OV-3 = test system: SK-OV-3
NCI-H226 = test system: NCI-H226
HCC 2998 = test system: HCC 2998
HL-60 = test system: HL-60
LOX IMVI = test system: LOX IMVI
RPMI-8226 = test system: RPMI-8226
SW-620 = test system: SW-620
DU-145 = test system: DU-145
HCT-116 = test system: HCT-116
MOLT-4 = test system: MOLT-4
EKVX = test system: EKVX
CCRF-CEM = test system: CCRF-CEM
SF-295 = test system: SF-295
A549 = test system: A549
UACC-257 = test system: UACC-257
SR = test system: SR
SNB-75 = test system: SNB-75
SNB-19 = test system: SNB-19
MDA-MB-231 = test system: MDA-MB-231
Hs-578T = test system: Hs-578T
NCI/ADR-RES = test system: NCI/ADR-RES
HT-29 = test system: HT-29
M14 = test system: M14
HCT-15 = test system: HCT-15
SK-MEL-28 = test system: SK-MEL-28
BT-549 = test system: BT-549
SF-539 = test system: SF-539
TK-10 = test system: TK-10
MDA-N = test system: MDA-N
RXF 393 = test system: RXF 393
OVCAR-5 = test system: OVCAR-5
HOP-62 = test system: HOP-62
SN12C = test system: SN12C
PC-3 = test system: PC-3
MDA-MB-435 = test system: MDA-MB-435
UO-31 = test system: UO-31
K562 = test system: K562
HOP-92 = test system: HOP-92
NCI-H522 = test system: NCI-H522

`CC1(C)CC(=O)C2=C(C1)NC1=C(C2)C(=O)CC(C)(C)C1` was tested, and the GI50 (OVCAR-3) was > 100 µM (inactive), the GI50 (ACHN) was > 100 µM (inactive) and the GI50 (IGROV-1) was > 100 µM (inactive). For the same molecule, the GI50 (Malme-3M) was > 100 µM (inactive), the GI50 (NCI-H460) was > 100 µM (inactive) and the GI50 (COLO 205) was > 100 µM (inactive). The GI50 (OVCAR-4) was > 100 µM (inactive), the GI50 (A498) was > 100 µM (inactive) and the GI50 (KM12) was > 100 µM (inactive). The GI50 (SK-MEL-5) was > 100 µM (inactive), the GI50 (NCI-H23) was > 100 µM (inactive) and the GI50 (OVCAR-8) was > 100 µM (inactive). The GI50 (786-0) was > 100 µM (inactive), the GI50 (SF-268) was > 100 µM (inactive) and the GI50 (UACC-62) was > 100 µM (inactive). For the same molecule, the GI50 (MCF7) was > 100 µM (inactive), the GI50 (CAKI-1) was > 100 µM (inactive) and the GI50 (U-251) was > 100 µM (inactive). For the same molecule, the GI50 (SK-OV-3) was > 100 µM (inactive), the GI50 (NCI-H226) was > 100 µM (inactive) and the GI50 (HCC 2998) was > 100 µM (inactive). The GI50 (HL-60) was > 100 µM (inactive), the GI50 (LOX IMVI) was > 100 µM (inactive) and the GI50 (RPMI-8226) was > 100 µM (inactive). The GI50 (SW-620) was > 100 µM (inactive), the GI50 (DU-145) was > 100 µM (inactive) and the GI50 (HCT-116) was > 100 µM (inactive). The GI50 (MOLT-4) was > 100 µM (inactive), the GI50 (EKVX) was > 100 µM (inactive) and the GI50 (CCRF-CEM) was > 100 µM (inactive). For the same molecule, the GI50 (SF-295) was > 100 µM (inactive), the GI50 (A549) was > 100 µM (inactive) and the GI50 (UACC-257) was > 100 µM (inactive). The GI50 (SR) was > 100 µM (inactive), the GI50 (SNB-75) was > 100 µM (inactive) and the GI50 (SNB-19) was > 100 µM (inactive). The GI50 (MDA-MB-231) was > 100 µM (inactive), the GI50 (Hs-578T) was > 100 µM (inactive) and the GI50 (NCI/ADR-RES) was > 100 µM (inactive). The GI50 (HT-29) was > 100 µM (inactive), the GI50 (M14) was > 100 µM (inactive) and the GI50 (HCT-15) was over 100 µM. The GI50 (SK-MEL-28) was > 100 µM (inactive), the GI50 (BT-549) was > 100 µM (inactive) and the GI50 (SF-539) was > 100 µM (inactive). For the same molecule, the GI50 (TK-10) was > 100 µM (inactive), the GI50 (MDA-N) was > 100 µM (inactive) and the GI50 (RXF 393) was > 100 µM (inactive). The GI50 (OVCAR-5) was > 100 µM (inactive), the GI50 (HOP-62) was > 100 µM (inactive) and the GI50 (SN12C) was > 100 µM (inactive). The GI50 (PC-3) was > 100 µM (inactive), the GI50 (MDA-MB-435) was > 100 µM (inactive) and the GI50 (UO-31) was > 100 µM (inactive). The GI50 (K562) was > 100 µM (inactive).

With `C=CCn1c(=O)c(C(=O)Nc2nc(C34CC5CC(CC(C5)C3)C4)cs2)c(O)c2ccccc21` the GI50 (HOP-92) was 28.4 µM (inactive), the GI50 (OVCAR-3) was 49.3 µM (inactive) and the GI50 (ACHN) was 29.5 µM (inactive). For the same molecule, the GI50 (IGROV-1) was 33.1 µM (inactive), the GI50 (Malme-3M) was 26 µM (inactive) and the GI50 (NCI-H460) was 32.9 µM (inactive). The GI50 (COLO 205) was 18.1 µM (inactive), the GI50 (OVCAR-4) was 39.2 µM (inactive) and the GI50 (A498) was 25.3 µM (inactive). For the same molecule, the GI50 (KM12) was 30.1 µM (inactive), the GI50 (SK-MEL-5) was 34.4 µM (inactive) and the GI50 (NCI-H23) was 34.3 µM (inactive). The GI50 (OVCAR-8) was 82.8 µM (inactive), the GI50 (786-0) was 39.8 µM (inactive) and the GI50 (SF-268) was > 10 µM (inactive). For the same molecule, the GI50 (MCF7) was 50.6 µM (inactive), the GI50 (CAKI-1) was 58.9 µM (inactive) and the GI50 (U-251) was 50.2 µM (inactive). For the same molecule, the GI50 (NCI-H226) was 50.7 µM (inactive), the GI50 (HCC 2998) was 37.5 µM (inactive) and the GI50 (HL-60) was 23.4 µM (inactive). The GI50 (LOX IMVI) was 34 µM (inactive), the GI50 (RPMI-8226) was 20.1 µM (inactive) and the GI50 (SW-620) was 23.5 µM (inactive). For the same molecule, the GI50 (DU-145) was 47.8 µM (inactive), the GI50 (HCT-116) was 30 µM (inactive) and the GI50 (MOLT-4) was 27.4 µM (inactive). The GI50 (EKVX) was 30.5 µM (inactive), the GI50 (CCRF-CEM) was 37.3 µM (inactive) and the GI50 (SF-295) was 17.9 µM (inactive). For the same molecule, the GI50 (A549) was 18.2 µM (inactive), the GI50 (UACC-257) was 10.2 µM (inactive) and the GI50 (SR) was 37.1 µM (inactive). The GI50 (SNB-75) was > 100 µM (inactive), the GI50 (SNB-19) was 53.6 µM (inactive) and the GI50 (MDA-MB-231) was 22 µM (inactive). For the same molecule, the GI50 (Hs-578T) was 32.4 µM (inactive), the GI50 (NCI/ADR-RES) was 15 µM (inactive) and the GI50 (HT-29) was 19.1 µM (inactive). For the same molecule, the GI50 (HCT-15) was 21.5 µM, the GI50 (SK-MEL-28) was 63 µM (inactive) and the GI50 (BT-549) was 24.4 µM (inactive). The GI50 (SF-539) was 60.8 µM (inactive), the GI50 (TK-10) was 82.8 µM (inactive) and the GI50 (MDA-N) was 48.6 µM (inactive). The GI50 (RXF 393) was 31.6 µM (inactive), the GI50 (OVCAR-5) was 91.6 µM (inactive) and the GI50 (NCI-H522) was 44 µM (inactive). For the same molecule, the GI50 (HOP-62) was 30.6 µM (inactive), the GI50 (SN12C) was 45.5 µM (inactive) and the GI50 (PC-3) was 43.4 µM (inactive). The GI50 (MDA-MB-435) was 63.4 µM (inactive), the GI50 (UO-31) was 31.8 µM (inactive) and the GI50 (K562) was 15.1 µM (inactive).
